Measurements taken from article PMC7407822, “Aldose Reductase Differential Inhibitors in Green Tea” (Biomolecules, 2020).
Read-outs that look alike come from different tables or passages of the source.

Columns and labels:
human recombinant AKR1B1 [1] = molecular target: T1, human recombinant AKR1B1 (Homo sapiens, UniProt P15121); experiment: AKR1B1 activity assay (NADPH oxidation at 340 nm), dose-dependent inhibition, IC50; format: biochemical
T1 construct: made in house
Description: One unit of enzyme activity is the amount of enzyme that catalyzes the conversion of 1 µmol of substrate/min in the above assay conditions.
The human recombinant AKR1B1 was expressed and purified to electrophoretic homogeneity, as previously described. […] The purified enzyme was stored at −80 °C in a 10 mM sodium phosphate buffer pH 7.0 containing 2 mM DTT and 30% (w/v) glycerol. Before use, AKR1B1 was extensively dialyzed against 10 mM of a sodium phosphate buffer pH 7.0.

human recombinant AKR1B1 [2] = molecular target: T1, human recombinant AKR1B1; experiment: Steady state inhibition kinetic analysis (Hanes-Woolf and secondary plots); format: biochemical; settings: for Ki’ (appK’i, ESI complex dissociation constant) / Ki: mean ± SD; for Ki: read-out: Ki (appKi, EI complex dissociation constant)
Description: The AKR1B1 activity was determined at 37 °C, as previously described, monitoring the decrease in absorbance at 340 nm linked to NADPH oxidation (ε340 = 6.22 mM^−1.cm^−1) using a Biochrom Libra S60 spectrophotometer. The standard assay mixture (0.7 mL) contained in a 0.25 M sodium phosphate buffer pH 6.8, 0.18 mM NADPH, 0.4 M ammonium sulfate, 0.5 mM EDTA, and 4.7 mM GAL. One unit of enzyme activity is the amount of enzyme that catalyzes the conversion of 1 µmol of substrate/min in the above assay conditions.
The kinetic analysis of the experimental rate measurements with different substrates (S) in the presence of inhibitors (I) was performed on the classical inhibition model of action. Here, (I) is considered to intervene into a steady state condition of the reaction, being free to interact with the free enzyme (E), the ES complex or with both, through a rapid equilibrium. Data were analyzed by Hanes-Woolf plots. The apparent dissociation constants ^appKi’ (for the ESI complex) and ^appKi (for the EI complex) were determined from secondary plots of 1/^appVmax and ^appKM/^appVmax as a function of the inhibitor concentration, respectively.

AKR1B1 = settings: known inhibitor co-crystallized with AKR1B1, PDB code 4IGS; cited from earlier work
[3] = 8 mM L-idose, 0.03 mM HNE, 0.07 mM GSHNE

| SMILES | residual activity for HNE reduction, of activity in the absence of inhibitor (human recombinant AKR1B1 [1]; 0.03 mM HNE, at EGCG concentrations equal to its IC50 for L-idose and GSHNE ([…] and […])) | ARDI action (differential inhibition of L-idose and GSHNE reduction with respect to HNE) (human recombinant AKR1B1 [1]; [3]) | type (model) of inhibition (human recombinant AKR1B1 [2]; substrate GSHNE) | Ki’ (appK’i, ESI complex dissociation constant) (human recombinant AKR1B1 [2]; substrate GSHNE) [µM] | type (model) of inhibition (human recombinant AKR1B1 [2]; substrate HNE) | Ki’ (appK’i, ESI complex dissociation constant) (human recombinant AKR1B1 [2]; substrate HNE) [µM] | type (model) of inhibition (human recombinant AKR1B1 [2]; substrate L-idose) | Ki’ (appK’i, ESI complex dissociation constant) (human recombinant AKR1B1 [2]; substrate L-idose) [µM] | IC50 (human recombinant AKR1B1 [1]; IC50, GSHNE reduction, 0.07 mM GSHNE, 8 mU AKR1B1, 37 °C, pH 6.8) [µM] | IC50 (human recombinant AKR1B1 [1]; IC50, HNE reduction, 0.03 mM HNE, 8 mU AKR1B1, 37 °C, pH 6.8) [µM] | IC50 (human recombinant AKR1B1 [1]; IC50, L-idose reduction, 8 mM L-idose, 8 mU AKR1B1, 37 °C, pH 6.8) [µM] | IC50 (human recombinant AKR1B1 [1]; read-out: IC50 values, unaffected by the nature of the substrate) [µM] | Ki (human recombinant AKR1B1 [2]; substrate GSHNE) [µM] | Ki/Ki’ (human recombinant AKR1B1 [2]; substrate HNE) | Ki (human recombinant AKR1B1 [2]; substrate HNE) [µM] | Ki/Ki’ (human recombinant AKR1B1 [2]; substrate L-idose) | activity as AKR1B1 inhibitor (AKR1B1) |
| --- | --- | --- | --- | --- | --- | --- | --- | --- | --- | --- | --- | --- | --- | --- | --- | --- | --- |
| O=C(O[C@@H]1Cc2c(O)cc(O)cc2O[C@@H]1c1cc(O)c(O)c(O)c1)c1cc(O)c(O)c(O)c1 [EGCG, epigallocatechin gallate] | 80–90% | comparable significant (p < 0.0001) ARDI action | apparently purely non-competitive type of inhibition | 144 ± 22 | typical uncompetitive model of action | 116 ± 11 | mixed type of inhibition | 61 ± 9 |  |  |  |  |  |  |  |  |  |
| O=C(O)c1cc(O)c(O)c(O)c1 [GA, gallic acid] |  | still able to act as an ARDI | apparent uncompetitive model of action | 793 ± 102 | apparent uncompetitive model of action | 253 ± 23 | apparent uncompetitive model of action | 103 ± 7 | 2500 | 586 | 196 |  |  |  |  |  |  |
| Oc1cc(O)c2c(c1)O[C@H](c1cc(O)c(O)c(O)c1)[C@H](O)C2 [EGC, epigallocatechin] |  | completely ineffective as ARDI | competitive inhibitor |  |  | 686 ± 63 |  | 496 ± 35 |  |  |  | 500 to 700 | 553 ± 87 | 2.5 | 1680 ± 289 | 2.5 |  |
| Oc1c(F)c(F)c(-c2c(F)c(F)c(O)c(F)c2F)c(F)c1F [JF0064] |  |  |  |  |  |  |  |  |  |  |  |  |  |  |  |  | very active at sub micromolar levels |
